Assay results published in patent publication US9956232B2, “Dialkyl-phosphinoyl-alkane (Dapa) compounds and compositions for treatment of lower gastrointestinal tract disorders” (priority 2016, dated 2018).
“And” between values parts separate entries of the source, which are not always exact repeats. Identical values can stand only once. “Also recorded” adds a separate entry of the source.

Tests used:
[1] = tested on: pentobarbital-anesthetized male rats; assay: Shaking frequency (wet-dog shaking) of anesthetized rats after intravenous, perioral or topical delivery; format: in vivo; settings: anesthetized rat; for Shaking frequency, Intravenous: 2 mg/kg i.v., 2nd trial, counted for 15 min; for Shaking frequency, Perioral: 20 mg/kg by oral gavage, counted for 40 min; for Shaking frequency, Topical: 20 μL pure compound on shaved abdominal skin, counted for 1 hr
Procedure: In experiments conducted here, test compounds were evaluated for “wet-dog shaking” as a model of cooling sensation. Using a standardized procedure, test compounds were compared in their ability to stimulate the shaking response by intravenous injection into a cannulated femoral vein, by perioral administration, and by topical delivery to the abdominal skin.
Each rat was given two injections with a 30 min interval. […] Shaking frequency was counted for 15 min after injection. Shaking was observed immediately after i.v. injection and at least 78% of the total shakes occurred in the first 5 min after injection. The response in the second trial was at least as robust in the first trial, showing the lack of desensitization.
Test compounds were dissolved in saline and administered by oral gavage to pentobarbital-anesthetized male albino rats at 20 mg/kg at a volume of 0.1 mL/100 g body weight [N=3 to 4 rats per compound]. Shaking was counted over a 40 min period and recorded at 10-min intervals.
For topical application of DAPA, the abdominal skin of the anesthetized rat was shaved and 20 μL of the pure DAPA was applied with a micropipette onto a ˜1 cm diameter circle of skin, enclosed with a ring of cream [Baby cream “Nevskaya kosmetika Detskyi” Nevskaya Kosmetika Inc., Saint-Petersburg 192029], as shown in FIG. 5D. The number of shakes was counted for 1 hr after application.

TRPM8 = TRPM8 (Homo sapiens, UniProt Q7Z2W7); assay: TRPM8 receptor agonist assay (Fluo-8 calcium, FLIPR); format: cell-based; design: host or cells: CHO cells, stably transfected; settings: for ×Menthol: TRPM8 relative potency as repeated in Table 4; for Relative Potency: relative to menthol = 1.0 (Table 2)
Procedure: Compounds were tested on (CHO) cells stably transfected with human TRPM8 cDNAs using a Fluo-8 calcium kit and a Fluorescence Imaging Plate Reader ([…]™) instrument. […] Solutions were prepared by diluting stock solutions in a HEPES-buffered physiological saline (HBPS) solution. Test compound and control formulations were loaded in polypropylene or glass-lined 384-well plates, and placed into the FLIPR instrument (Molecular Devices Corporation, Union City, Calif., USA). Each was tested at 8 concentrations with n=4 replicates per determination. […] For […]™ assay, cells were plated in 384-well black wall, flat clear-bottom microtiter plates (Type: BD Biocoat Poly-D-Lysine Multiwell Cell Culture Plate) at approximately 30,000 cells per well. Cells were incubated at 37° C. overnight to reach a near confluent monolayer appropriate for use in a fluorescence assay. The test procedure was to remove the growth media and to add 40 μL of HBPS containing Fluo-8 for 30 minutes at 37° C. 10 μL of test compound, vehicle, or control solutions in HBPS were added to each well and read for 4 minutes. Concentration-response data were analysed via the FLIPR Control software that is supplied with the FLIPR System (MDS-AT) and fitted to a Hill equation.

[2] = tested on: heat-induced edema in the anesthetized rat paw; assay: Heat-induced edema in the anesthetized rat paw; format: in vivo; settings: 20 mg/mL, 0.3 mL per paw, 30 min before 58° C. water 1 min; relative to contralateral paw
Source text: Inflammation is defined as the reaction of vascularized living tissue to local injury [Cotran, R S. 1989. Inflammation and repair. In Robbins: Pathologic Basis of Disease, ed. S. L. Robbins, R. S. Cotran, V. Kumar, 2:39-86. Philadelphia: Saunders. 4th ed.]. The characteristic signs of inflammation are redness, swelling, heat, and pain (and loss of function). The anti-inflammatory properties of the DAPA compounds were studied in a model of heat-induced vascular leakage [Wei et al. Method of inhibiting inflammatory response. U.S. Pat. No. 4,801,612; Wei et al., Anti-inflammatory peptide agonists. Annual Review Pharmacol Toxicol. 33:9-108, 1993]. When the paws of pentobarbital-anesthetized rats (200 to 300 g body weight) are immersed in 58° C. water for 1 min, the normal paw volume of about 1.8 mL was increased by ˜88% within 30 min, the swelling being due to an increase in water content of the paw.
Test compounds were dissolved in 20% water-80% R-1,2-propanediol at 20 mg/mL. The solutions were applied to the paw skin of pentobarbital-anesthetized rats (200 to 300 g body weight) at 0.3 mL per paw, using a syringe attached to a blunt 21 gauge needle covered at its tip with a piece of polyethylene 60 tubing. After distributing the solution over the paw, the paw was tightly enclosed in a plastic finger cut from a disposable glove. The contralateral paw [control] received only the vehicle. Thirty min after application, both paws were immersed in 58° C. water for 1 min. Thirty min after immersion, both paws were cut at ankle joint with scissors and weighed.
This degree of inhibition is significant for tissue protection as the injury stimulus is of supra-maximal intensity. The DAPA-2-5 effect was apparent to the untrained observer.

Strains TA 98 and TA100 = assay: Ames test; format: cell-based; settings: TA 98 and TA100, with and without liver activation
Procedure: Preliminary toxicological studies were conducted on DAPA-2-5 and DAPA-2-7.

[3] = Repeated-dose toxicity in male rats (organ weights, histology); format: in vivo, rat; settings: 30 mg/kg subcutaneously daily for 7 days, male rats
isolated mouse vagus = assay: Capsaicin-induced depolarization of the isolated vagus nerve
Source text: An isolated vagus nerve model was developed at Imperial College, London, U.K. [Birrell et al. TrpA1 agonists evoke coughing in guinea pig and human volunteers. Amer. J. respiratory and critical care medicine 180, 1042-7, 2009; Patel, H. J. et al. Inhibition of guinea-pig and human sensory nerve activity and the cough reflex in guinea-pigs by cannabinoid (CB2) receptor activation. Brit. J. Pharmacol. 140, 261-8, 2003]. In this in vitro assay, segments of the mouse vagus nerve are placed on a platform and the electrical activity is recorded after topical application of capsaicin. Capsaicin is a known irritant that elicits pain when it is applied to the skin and it will depolarize the isolated vagus. […] The similar effect of DAPA-2-5 in this test system was published in U.S. Ser. No. 14/55,042. Briefly, segments of vagus nerve, caudal to the nodose ganglion, were removed from mice with fine forceps and segments placed in oxygenated Krebs solution and bubbled with 95% O2/5% CO2. The desheathed nerve trunk was mounted in a ‘grease-gap’ recording chamber and constantly superfused with Krebs solution with a flow rate of approximately 2 mL/min, and the electrical activity of the nerve monitored with electrodes. The temperature of the perfusate was kept constant at 37° C. by a water bath. Nerve depolarizations were induced by superfusion of the nerve with capsaicin (1 μM). After two reproducible depolarization responses to capsaicin, DIPA-1-7 was applied at 1 mg/mL for 10 minutes in the perfusate followed by capsaicin.

TRPA1 = TRPA1 (Homo sapiens, UniProt O75762); assay: TRPA1 selectivity assay, calcium entry in transfected CHO cells; format: cell-based; design: expressed in transfected cells; host or cells: CHO cells; settings: maximum tested concentration 100 μM
Source text: (§1) The selectivity of test compounds were examined on TRPV1 channels (human TRPV1 gene expressed in HEK293 cells) and TRPA1 channels (human TRPA1 gene expressed in CHO cells). The test cells were Chinese Hamster Ovary (CHO) cells or Human Embyronic Kidney (HEK) 293 cells transfected with human TRPV1 or TRPA1 cDNAs.
(§2) The ordinate is given in Relative Fluorescence Units; % of maximum, which measure calcium entry into the transfected cells and the abscissa is the logarithm of the concentration of the test compound.

TRPV1 = TRPV1 (Homo sapiens, UniProt Q8NER1); assay: TRPV1 selectivity assay, calcium entry in transfected HEK293 cells; format: cell-based; design: expressed in transfected cells; host or cells: HEK293 cells; settings: maximum tested concentration 100 μM
Source text: as §1, §2

Chain of TRPV1 (Q8NER1 whole entry): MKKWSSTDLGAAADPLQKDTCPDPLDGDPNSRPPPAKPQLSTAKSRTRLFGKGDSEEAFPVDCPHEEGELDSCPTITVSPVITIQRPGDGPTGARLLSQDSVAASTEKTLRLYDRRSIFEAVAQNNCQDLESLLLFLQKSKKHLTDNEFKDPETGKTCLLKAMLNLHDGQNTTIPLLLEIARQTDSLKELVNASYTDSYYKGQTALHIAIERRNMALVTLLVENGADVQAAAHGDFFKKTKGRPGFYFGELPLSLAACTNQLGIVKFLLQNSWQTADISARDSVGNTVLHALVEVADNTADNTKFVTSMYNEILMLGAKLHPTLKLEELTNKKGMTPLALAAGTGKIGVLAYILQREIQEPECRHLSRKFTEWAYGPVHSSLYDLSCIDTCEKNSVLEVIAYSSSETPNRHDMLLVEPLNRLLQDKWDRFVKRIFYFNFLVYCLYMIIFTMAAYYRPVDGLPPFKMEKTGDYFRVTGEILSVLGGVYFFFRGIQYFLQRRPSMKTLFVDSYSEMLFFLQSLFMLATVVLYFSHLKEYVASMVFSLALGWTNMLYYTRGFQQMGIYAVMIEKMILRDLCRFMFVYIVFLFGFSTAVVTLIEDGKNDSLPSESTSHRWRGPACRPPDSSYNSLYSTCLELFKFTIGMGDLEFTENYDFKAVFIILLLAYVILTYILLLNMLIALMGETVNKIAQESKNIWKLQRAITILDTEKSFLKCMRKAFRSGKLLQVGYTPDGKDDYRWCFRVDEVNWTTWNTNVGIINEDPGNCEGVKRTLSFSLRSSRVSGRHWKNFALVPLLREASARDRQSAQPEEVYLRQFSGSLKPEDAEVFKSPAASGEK
Chain of TRPA1 (O75762 whole entry): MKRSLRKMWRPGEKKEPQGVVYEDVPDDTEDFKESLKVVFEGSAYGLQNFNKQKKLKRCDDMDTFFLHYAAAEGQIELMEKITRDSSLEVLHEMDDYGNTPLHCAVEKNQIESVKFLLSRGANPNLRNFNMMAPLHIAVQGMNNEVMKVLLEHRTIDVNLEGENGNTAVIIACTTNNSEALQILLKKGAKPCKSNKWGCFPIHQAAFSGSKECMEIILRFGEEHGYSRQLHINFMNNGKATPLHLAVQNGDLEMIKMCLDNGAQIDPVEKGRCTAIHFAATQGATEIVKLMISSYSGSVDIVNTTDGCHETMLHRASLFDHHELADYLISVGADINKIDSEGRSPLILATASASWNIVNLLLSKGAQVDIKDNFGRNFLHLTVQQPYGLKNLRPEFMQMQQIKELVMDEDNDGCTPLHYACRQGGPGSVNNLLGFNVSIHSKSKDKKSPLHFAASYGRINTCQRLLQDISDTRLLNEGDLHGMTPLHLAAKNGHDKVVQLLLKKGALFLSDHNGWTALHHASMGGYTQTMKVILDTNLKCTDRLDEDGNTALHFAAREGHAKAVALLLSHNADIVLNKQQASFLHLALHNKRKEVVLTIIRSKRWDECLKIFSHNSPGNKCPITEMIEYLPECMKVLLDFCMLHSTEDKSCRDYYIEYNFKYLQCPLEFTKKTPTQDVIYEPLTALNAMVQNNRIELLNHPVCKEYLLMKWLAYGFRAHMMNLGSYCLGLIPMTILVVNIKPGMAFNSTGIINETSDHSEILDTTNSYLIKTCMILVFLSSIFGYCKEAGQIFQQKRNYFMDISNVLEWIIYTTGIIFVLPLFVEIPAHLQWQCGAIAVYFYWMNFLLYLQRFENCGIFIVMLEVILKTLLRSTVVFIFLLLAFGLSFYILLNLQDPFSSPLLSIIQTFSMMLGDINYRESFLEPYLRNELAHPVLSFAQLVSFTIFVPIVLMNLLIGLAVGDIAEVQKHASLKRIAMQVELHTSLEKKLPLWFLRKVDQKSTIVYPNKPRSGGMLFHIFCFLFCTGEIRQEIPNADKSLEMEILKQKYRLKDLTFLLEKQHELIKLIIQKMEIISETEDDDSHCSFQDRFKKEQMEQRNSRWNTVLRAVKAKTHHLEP
Chain of TRPM8 (Q7Z2W7 whole entry): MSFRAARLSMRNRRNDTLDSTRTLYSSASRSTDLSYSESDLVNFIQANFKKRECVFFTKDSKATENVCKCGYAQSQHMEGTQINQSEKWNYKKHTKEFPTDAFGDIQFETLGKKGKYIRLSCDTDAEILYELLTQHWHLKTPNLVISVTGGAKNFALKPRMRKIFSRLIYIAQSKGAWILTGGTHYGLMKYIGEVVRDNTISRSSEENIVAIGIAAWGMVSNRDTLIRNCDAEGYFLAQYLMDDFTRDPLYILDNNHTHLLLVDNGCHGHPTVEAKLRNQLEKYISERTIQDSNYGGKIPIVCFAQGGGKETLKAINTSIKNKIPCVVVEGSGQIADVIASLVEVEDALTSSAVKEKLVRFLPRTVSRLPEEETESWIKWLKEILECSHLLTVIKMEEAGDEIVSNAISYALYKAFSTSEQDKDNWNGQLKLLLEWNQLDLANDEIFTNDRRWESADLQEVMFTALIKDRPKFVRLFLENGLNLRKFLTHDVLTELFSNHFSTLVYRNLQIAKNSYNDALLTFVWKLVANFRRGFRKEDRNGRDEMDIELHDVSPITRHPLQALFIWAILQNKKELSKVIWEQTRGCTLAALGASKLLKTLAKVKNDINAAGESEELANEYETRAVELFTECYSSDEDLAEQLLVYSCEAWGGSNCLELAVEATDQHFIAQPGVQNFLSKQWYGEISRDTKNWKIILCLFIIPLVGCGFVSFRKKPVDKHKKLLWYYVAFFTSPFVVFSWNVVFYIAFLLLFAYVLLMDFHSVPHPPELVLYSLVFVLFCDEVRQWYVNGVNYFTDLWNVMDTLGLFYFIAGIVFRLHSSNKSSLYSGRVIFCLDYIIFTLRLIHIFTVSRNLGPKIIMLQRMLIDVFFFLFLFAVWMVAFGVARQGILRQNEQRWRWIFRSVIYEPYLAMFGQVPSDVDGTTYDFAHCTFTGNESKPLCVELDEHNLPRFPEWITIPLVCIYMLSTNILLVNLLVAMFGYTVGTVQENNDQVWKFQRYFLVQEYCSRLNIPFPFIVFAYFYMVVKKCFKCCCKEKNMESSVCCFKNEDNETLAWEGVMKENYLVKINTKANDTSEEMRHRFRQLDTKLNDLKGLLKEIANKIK

SMILES: CCCCP(=O)(C(C)CC)C(C)CC (centres unmarked) [DAPA-2-4, 1-Di(sec-butyl) phosphinoyl-butane]
- Shaking frequency, Intravenous [1]: 8 ± 2 shakes
- Shaking frequency, Perioral [1]: 0 shakes
- Shaking frequency, Topical [1]: 0 shakes
- ×Menthol (TRPM8): 0.3
- Relative Potency (TRPM8): 0.3

SMILES: CCCCCCP(=O)(C(C)CC)C(C)CC (centres unmarked) [DAPA-2-6, 1-Di(sec-butyl) phosphinoyl-hexane]
- Inhibition of Heat Edema (±S.E.M.) [2]: 2.9 ± 1.4%
- Shaking frequency, Intravenous [1]: 30 ± 3 shakes
- Shaking frequency, Perioral [1]: 0 shakes
- Shaking frequency, Topical [1]: 0 shakes
- ×Menthol (TRPM8): 4.7
- Relative Potency (TRPM8): 4.7

SMILES: CCCCCCCP(=O)(C(C)CC)C(C)CC (centres unmarked) [DAPA-2-7, 1-Di(sec-butyl) phosphinoyl-heptane]
- Inhibition of Heat Edema (±S.E.M.) [2]: 5.2 ± 2.1%
- Shaking frequency, Intravenous [1]: 15 ± 2 shakes
- Shaking frequency, Perioral [1]: 0 shakes
- Shaking frequency, Topical [1]: 0 shakes
- mutagenicity in the Ames test (Strains TA 98 and TA100): Neither of these compounds was mutagenic
- body or organ weights vs vehicle [3]: no significant differences in body or organ weights
- heart and liver histology [3]: normal
- ×Menthol (TRPM8): 3.4
- Relative Potency (TRPM8): 3.4

SMILES: CCCCCCCCP(=O)(C(C)CC)C(C)CC (centres unmarked) [DAPA-2-8, 1-Di(sec-butyl) phosphinoyl-octane]
- Shaking frequency, Intravenous [1]: 2. shakes
- Shaking frequency, Perioral [1]: 0 shakes
- Shaking frequency, Topical [1]: 0 shakes
- ×Menthol (TRPM8): 2.9
- Relative Potency (TRPM8): 2.9

SMILES: CCCCCP(=O)(CC(C)C)CC(C)C [DAPA-3-1, 1-Di(iso-butyl) phosphinoyl-pentane]
- Relative Potency (TRPM8): 0.2

SMILES: CCC(C)P(=O)(CCC(C)C)C(C)CC (centres unmarked) [DAPA-3-2, 1-Di(sec-butyl) phosphinoyl-3-methyl-butane]
- Relative Potency (TRPM8): 0.9

SMILES: CCCCCP(=O)(C(C)C)C(C)C [DIPA-1-5, 1-Diisopropyl-phosphinoyl-pentane]
- Shaking frequency, Intravenous [1]: 19 ± 3 shakes
- Shaking frequency, Perioral [1]: 86 shakes and 86 ± 7 shakes
- Shaking frequency, Topical [1]: 138 ± 15 shakes
- ×Menthol (TRPM8): 0.7
- Relative Potency (TRPM8): 0.7

SMILES: CCCCCCP(=O)(C(C)C)C(C)C [DIPA-1-6, 1-Diisopropyl-phosphinoyl-hexane]
- Shaking frequency, Intravenous [1]: 39 ± 4 shakes
- Shaking frequency, Perioral [1]: 56 shakes and 56 ± 5 shakes
- Shaking frequency, Topical [1]: 69 ± 8 shakes
- ×Menthol (TRPM8): 1.6
- Relative Potency (TRPM8): 1.6

SMILES: CCCCCCCP(=O)(C(C)C)C(C)C [DIPA-1-7, 1-Diisopropyl-phosphinoyl-heptane]
- inhibition at 1000 µg/mL (isolated mouse vagus; isolated TRPM8 knock-out mouse vagus, 1 mg/mL, capsaicin 1 μM, read-out: percent inhibition of capsaicin-induced depolarization): ~20%
- depolarization evoked by the compound by itself (isolated mouse vagus; isolated mouse vagus, no capsaicin): did not evoke depolarization
- percent inhibition of capsaicin-induced depolarization (isolated mouse vagus; isolated normal (wild type) mouse vagus, 1 mg/mL superfused 10 min, capsaicin 1 μM): about 75%
- Inhibition of Heat Edema (±S.E.M.) [2]: −1.5 ± 2.0%
- Shaking frequency, Intravenous [1]: 25 ± 3 shakes
- Shaking frequency, Perioral [1]: 36 shakes and 36 ± 4 shakes
- Shaking frequency, Topical [1]: 79 ± 8 shakes
- ×Menthol (TRPM8): 5.4
- Relative Potency (TRPM8): 5.4
- agonist or antagonist activity on TRPA1 channels (TRPA1): did not exhibit significant agonist on antagonist activity
- agonist or antagonist activity on TRPV1 channels (TRPV1): did not exhibit significant agonist on antagonist activity; also recorded: slight non-dose-dependent agonist action

SMILES: CCCCCCCCP(=O)(C(C)C)C(C)C [DIPA-1-8, 1-Diisopropyl-phosphinoyl-octane]
- Inhibition of Heat Edema (±S.E.M.) [2]: −5.0 ± 2.7%
- Shaking frequency, Intravenous [1]: 14 ± 2 shakes
- Shaking frequency, Perioral [1]: 0 shakes
- Shaking frequency, Topical [1]: 7 ± 2 shakes
- ×Menthol (TRPM8): 5.4
- Relative Potency (TRPM8): 5.4
- agonist or antagonist activity on TRPA1 channels (TRPA1): did not exhibit significant agonist on antagonist activity
- agonist or antagonist activity on TRPA1 channels (TRPA1; listed as DAPA-1-8): devoid of agonist or antagonist activities
- agonist or antagonist activity on TRPV1 channels (TRPV1): did not exhibit significant agonist on antagonist activity
- agonist or antagonist activity on TRPV1 channels (TRPV1; listed as DAPA-1-8): devoid of agonist or antagonist activities

SMILES: COc1cc(CNC(=O)CCCC/C=C/C(C)C)ccc1O [capsaicin, reference compound]
- agonist or antagonist activity on TRPV1 channels (TRPV1): active
